Entries after “also recorded” stand apart in the source; their conditions may differ.
How the values were obtained:
[1] = 10 mg/kg/day; cited from earlier work
[2] = tested on: non-transduced hESC colonies; test: Morphology and size of hESC colonies upon nucleoside treatment; assay type: cell-based, human
From the text: We next investigated the impact of ACV, PCV, and GCV on non-transduced hESC and neuroprogenitors (proliferating ReNcells). […] To further understand the impact of nucleoside analogs on non-transduced cells, we performed γ-H2A.X immunostaining (Figure 6B). There was a graded response, virtually identical in hESC and in neuroprogenitors. […] In addition, we investigated the morphology and size of non-transduced hESC colonies upon nucleoside treatment. […] Taken together, our findings confirm considerable toxicity of GCV, even in the absence of viral TK. Note that this was not the case for PCV despite the fact that it is a potent inducer of cell death in thymidine kinase-expressing cells.
Cells were exposed to 100 µM of the respective nucleoside for 48 h. DNA damage was monitored using γ-H2A.X marker in yellow and nuclei were counterstained with Hoechst. The white box in the first column indicates the area of the zoom for the hESC colonies.

[3] = tested on: Ki67-SR39h-expressing hESC transplanted into the striatum; test: In vivo prevention of tumor formation after striatal transplantation; parameters: species or system NOD/SCID mice; conditions: 40 mg/kg/day i.p., 47 days post-transplantation
Method: Given the encouraging in vitro results, we next investigated whether this newly developed safety switch system (SR39h and different nucleoside analogs) could prevent tumor formation in vivo. For this purpose, 20,000 undifferentiated Ki67-SR39h-expressing hESC were transplanted into the striatum of NOD/SCID mice. […] A group of control mice received only a NaCl solution. […] Human cytoplasmic marker (HCM) staining confirmed the human (i.e., hESC-derived) origin of these tumors. Tumors cells were predominantly Ki67 positive with a rosette organization as frequently found in tumors of the central nervous system.
Figure 7 in vivo validation of suicide gene and inducers. (A) Schematic diagram of the experimental setup to detect tumor elimination in vivo. NOD/SCID mice were transplanted with 20,000 SR39h-expressing hESC through stereotactic injection into the striatum. 48 h post transplantation, mice were intraperitoneally injected with the respective nucleoside (40 mg/kg) for five consecutive days a week during a two-week period. Control mice were treated with a NaCl solution. Mice were sacrificed 47 days post transplantation. (B) Cresyl violet staining of a brain section. […] (C) Immunostaining of brain coronal section (sections from ACV-, PCV-, and GCV-treated mice are shown in the upper, middle, and lower row, respectively). Staining with the proliferation marker Ki67 and with the human cytoplasmic marker (HCM) are shown in red and green, respectively. Nuclei were counterstained with DAPI (blue). White arrows show residual proliferative cells form the graft. A merge of the three staining is shown in the right column. Each experimental group consisted of five mice.
Single cell transplant: Undifferentiated HS420 (expressing TK variants) were detached by TrypLE and concentrated at 20,000 cells/μL in Stemflex. 20,000 cells (1 μL) were injected into the right striatum using a 26-G Hamilton syringe (Hamilton, BGB Analytik AG, Boeckten, Switzerland). Injection coordinates for striatum were: bregma = 0.6 mm, mediolateral = 2 mm, dorsoventral = 3 mm.
Thirty days after termination of treatment with the respective antiviral nucleoside analogs or control (NaCl), mice were sacrificed by intracardiac perfusion of paraformaldehyde 4% in PBS. Brains were removed from the skull and post-fixed in the same fixative overnight.
Paraffin embedded brains were sectioned (coronal sections 7 µm thick) and processed for hematoxylin and eosin or cresyl violet staining stain aiming morphological assessment of the graft. Sections were mounted in Eukitt (Kindler GmbH, Germany) and observed under microscope (see below)
The primary antibody diluted in PBS with 0.3% Triton was incubated at 4 °C overnight in agitation. […]

## Nc1nc(O)c2ncn(COC(CO)CO)c2n1 [GCV, ganciclovir]
[1]
  Side effects at the maximal recommended doses: considerable side effects
[2]
  Effect on morphology and size of colonies: smaller colonies
[3]; five consecutive days a week for two weeks, from 2 days after transplantation, five mice per group
  Tumor formation: prevented tumor formation; also recorded: no major tumors; also recorded: impressive anti-tumor activities
[3]; cresyl violet staining
  Mice with a small nuclei-rich region at the graft site: did not observe any structures resembling tumors

From PMC8834506, “Optimization of Thymidine Kinase-Based Safety Switch for Neural Cell Therapy” (Cells, 2022)
